Laboratory results from PubChem BioAssay (NCI).
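Test compounds were applied to cells in 96-well plates for 48 hours at 5 doses. TGI denotes the concentration required for complete inhibition of growth.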

Key:
Assay in all cases: DTP human tumour cell line panel, 48 h
EKVX NSCLC = tested on: EKVX NSCLC
HOP-92 NSCLC = tested on: HOP-92 NSCLC
MDA-MB-231 breast = tested on: MDA-MB-231 breast
OVCAR-5 ovarian = tested on: OVCAR-5 ovarian
COLO 205 colon = tested on: COLO 205 colon
SF-268 CNS = tested on: SF-268 CNS
SK-MEL-2 melanoma = tested on: SK-MEL-2 melanoma
SK-MEL-5 melanoma = tested on: SK-MEL-5 melanoma
DU-145 prostate = tested on: DU-145 prostate
ACHN renal = tested on: ACHN renal
UACC-257 melanoma = tested on: UACC-257 melanoma
HL-60(TB) leukemia = tested on: HL-60(TB) leukemia
OVCAR-4 ovarian = tested on: OVCAR-4 ovarian
MDA-N = tested on: MDA-N
SR leukemia = tested on: SR leukemia
MDA-MB-435 = tested on: MDA-MB-435
MALME-3M melanoma = tested on: MALME-3M melanoma
HCT-15 colon = tested on: HCT-15 colon
SF-295 CNS = tested on: SF-295 CNS
TK-10 renal = tested on: TK-10 renal
OVCAR-3 ovarian = tested on: OVCAR-3 ovarian
SF-539 CNS = tested on: SF-539 CNS
K-562 leukemia = tested on: K-562 leukemia
SK-OV-3 ovarian = tested on: SK-OV-3 ovarian
U251 CNS = tested on: U251 CNS
HS 578T breast = tested on: HS 578T breast
CAKI-1 renal = tested on: CAKI-1 renal
KM12 colon = tested on: KM12 colon
RXF 393 renal = tested on: RXF 393 renal
HT29 colon = tested on: HT29 colon
MCF7 breast = tested on: MCF7 breast
SNB-75 CNS = tested on: SNB-75 CNS
BT-549 breast = tested on: BT-549 breast
M14 melanoma = tested on: M14 melanoma
SK-MEL-28 melanoma = tested on: SK-MEL-28 melanoma
UACC-62 melanoma = tested on: UACC-62 melanoma
RPMI-8226 leukemia = tested on: RPMI-8226 leukemia
CCRF-CEM leukemia = tested on: CCRF-CEM leukemia
NCI-H23 lung = tested on: NCI-H23 lung
OVCAR-8 ovarian = tested on: OVCAR-8 ovarian
LOX IMVI melanoma = tested on: LOX IMVI melanoma
NCI/ADR-RES ovarian = tested on: NCI/ADR-RES ovarian
NCI-H460 lung = tested on: NCI-H460 lung
T-47D breast = tested on: T-47D breast
IGROV1 ovarian = tested on: IGROV1 ovarian
HCC-2998 colon = tested on: HCC-2998 colon
SNB-19 CNS = tested on: SNB-19 CNS
HCT-116 colon = tested on: HCT-116 colon
PC-3 prostate = tested on: PC-3 prostate
UO-31 renal = tested on: UO-31 renal
786-0 renal = tested on: 786-0 renal
SN12C renal = tested on: SN12C renal
A549 NSCLC = tested on: A549 NSCLC
A498 renal = tested on: A498 renal
NCI-H226 lung = tested on: NCI-H226 lung
HOP-62 NSCLC = tested on: HOP-62 NSCLC
SW-620 colon = tested on: SW-620 colon

CCn1ncc(Oc2c(Cl)cc(N)cc2Cl)c(Cl)c1=O
TGI (EKVX NSCLC): > 100 µM | TGI (HOP-92 NSCLC): > 100 µM | TGI (MDA-MB-231 breast): > 100 µM | TGI (OVCAR-5 ovarian): > 100 µM | TGI (COLO 205 colon): 46.9 µM | TGI (SF-268 CNS): > 100 µM | TGI (SK-MEL-2 melanoma): > 100 µM | TGI (SK-MEL-5 melanoma): 65 µM | TGI (DU-145 prostate): > 100 µM | TGI (ACHN renal): > 100 µM | TGI (UACC-257 melanoma): > 100 µM | TGI (HL-60(TB) leukemia): > 100 µM | TGI (OVCAR-4 ovarian): > 100 µM | TGI (MDA-N): 79.6 µM | TGI (SR leukemia): 80.7 µM | TGI (MDA-MB-435): > 100 µM | TGI (MALME-3M melanoma): > 100 µM | TGI (HCT-15 colon): > 100 µM | TGI (SF-295 CNS): 63.6 µM | TGI (TK-10 renal): > 100 µM | TGI (OVCAR-3 ovarian): 40.7 µM | TGI (SF-539 CNS): > 100 µM | TGI (K-562 leukemia): > 100 µM | TGI (SK-OV-3 ovarian): 77.9 µM | TGI (U251 CNS): > 100 µM | TGI (HS 578T breast): 67.6 µM | TGI (CAKI-1 renal): > 100 µM | TGI (KM12 colon): > 100 µM | TGI (RXF 393 renal): > 100 µM | TGI (HT29 colon): 58.5 µM | TGI (MCF7 breast): > 100 µM | TGI (SNB-75 CNS): > 100 µM | TGI (BT-549 breast): 91.1 µM | TGI (M14 melanoma): > 100 µM | TGI (SK-MEL-28 melanoma): > 100 µM | TGI (UACC-62 melanoma): > 100 µM | TGI (RPMI-8226 leukemia): > 100 µM | TGI (CCRF-CEM leukemia): > 100 µM | TGI (NCI-H23 lung): > 100 µM | TGI (OVCAR-8 ovarian): > 100 µM | TGI (LOX IMVI melanoma): > 100 µM | TGI (NCI/ADR-RES ovarian): > 100 µM | TGI (NCI-H460 lung): > 100 µM | TGI (T-47D breast): > 100 µM | TGI (IGROV1 ovarian): > 100 µM | TGI (HCC-2998 colon): > 100 µM | TGI (SNB-19 CNS): > 100 µM | TGI (HCT-116 colon): 80.8 µM | TGI (PC-3 prostate): > 100 µM | TGI (UO-31 renal): > 100 µM | TGI (786-0 renal): > 100 µM | TGI (SN12C renal): > 100 µM | TGI (A549 NSCLC): > 100 µM | TGI (A498 renal): > 100 µM | TGI (NCI-H226 lung): > 100 µM | TGI (HOP-62 NSCLC): > 100 µM | TGI (SW-620 colon): > 100 µM
